# Test results: PubChem BioAssay AID1035470 (Broad Institute, 2014)
# Inconclusive results are not listed. Activity calls are given as the source filed them.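 The calls were made as follows: active = compound lowering the normal-ribosome reporter at least twice as much as the humanized-ribosome reporter, growth loss under a set limit; inconclusive = no clear call, values can overlap the other calls; inactive = the rest.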
# Test system: E. coli WT-GFP vs G2058-humanized RFP, fluorescence, 24 h
# Assay: E. coli strain growth, wild-type against G2058 humanized RFP mutant – G2058 mutant RFP vs wild-type GFP, cherry-pick, two tests, dose response (AID 1035470)
# [1] = measured here: G2058 humanized mutant RFP growth
# [2] = E. coli WT-GFP vs G2058-humanized RFP mixed culture, total growth OD600, 24 h
SMILES,AC50,AC50 [2] [µM],other results
COC(C(=O)Nc1ccnn1C1CCN(Cc2ccc(Cl)s2)CC1)c1ccccc1 (stereo not given),> 100 µM (inactive),–,AC50 [1]: > 100 µM
CCCC#C/C(CCC)=C1\c2ccccc2C(=O)N1c1ccccc1,> 100 µM (inactive),> 100,–
Cc1csc2c(N3CCC(C(=O)O)CC3)ncnc12,> 100 µM (inactive),> 100,AC50 [1]: 50.4 µM
COC(=O)c1ccc(CSc2nc3ccccc3s2)o1,–,> 100,–
COc1ccc(CNc2ncnc3cc(OC)c(OC)cc23)cc1OC,> 100 µM (inactive),> 100,–
O=S1(=O)c2ccc(Br)cc2OCCC2CCCCN21 (stereo not given),> 100 µM (inactive),> 100,–
N#Cc1ccc(-c2ccc(C3[C@H]4CNC[C@@H]3N4S(=O)(=O)c3ccc(-c4ccccc4)cc3)cc2)cc1 (stereo not given in full),–,> 100,–
CNC(=O)C[C@H]1CC[C@@H]2[C@@H](COc3ccc(NC(=O)Nc4ccc(F)c(F)c4)cc3C(=O)N2C)O1,> 100 µM (inactive),–,–
C[C@@H]1CCCCO[C@@H](CN(C)C)[C@H](C)CN([C@@H](C)CO)C(=O)c2cc(NC(=O)Nc3cccc4ccccc34)ccc2O1,–,> 100,–
COc1cccc(OC)c1CNC(=O)CCSCc1ccccc1F,> 100 µM (inactive),> 100,–
CCOc1ccccc1C(=O)NCC(=O)OCCOc1cccc(Cl)c1,–,–,AC50 [1]: > 100 µM
Cc1ccc(Nc2cc(C(=O)NCCCN3CCOCC3)c3ccccc3n2)cc1C,> 100 µM (inactive),> 100,–
Cc1ccc(NC(=O)c2ccc([N+](=O)[O-])s2)cc1S(=O)(=O)N1CCOCC1,> 100 µM (inactive),> 100,–
CC(C)(Nc1ccccc1)C(=O)c1ccccc1,–,> 100,–
CCOC(=O)c1[nH]c2ccccc2c1NC(=O)c1ccc(Br)o1,> 100 µM (inactive),> 100,–
O=C(Nc1cccc2c1CCCC2)c1ccco1,> 100 µM (inactive),> 100,–
COc1ccc(Nc2oc(-c3ccco3)nc2S(=O)(=O)c2ccc(F)cc2)cc1,8.11 µM,–,"AC50 (E. coli WT-GFP vs G2058-humanized RFP mixed culture, OD600 growth, 24 h, test 1): 29 µM; AC50 (measured here: mutant RFP, test 1): 37.6 µM; AC50 (measured here: wild-type GFP, test 1): 4.64 µM"
C=CCN(CC=C)C(=O)c1ccc2nc(Cc3ccc(OC)c(OC)c3)oc2c1,> 100 µM (inactive),–,–
Cc1ccc(C(=O)Nc2ccc3ncccc3c2)cc1,> 100 µM (inactive),–,–
CC1CCN(c2ccc3nnc(CCC(=O)Nc4cccc(F)c4)n3n2)CC1,> 100 µM (inactive),> 100,–
O=C(COC(=O)C1CC2C=CC1C2)NCCc1ccccc1 (stereo not given),–,> 100,–
CCOc1ccc2nc(NC(=O)CSc3nc(SC)ns3)sc2c1,> 100 µM (inactive),> 100,–

SMILES,AC50,AC50 [2] [µM],other results
CCN(CC)C(=O)c1sc2nc(-c3ccccc3)ccc2c1N,> 100 µM (inactive),–,AC50 [1]: > 100 µM
CC(=O)Nc1ccc(OCc2nnc(-c3ccccc3)o2)cc1,> 100 µM (inactive),> 100,–
CCN(CC)S(=O)(=O)c1ccc(N2CCCC2)c(NC(=O)c2ccccc2OC)c1,> 100 µM (inactive),–,–
Cc1ccc(-c2c(=O)n(O)c3ccccc3[n+]2[O-])cc1,–,–,AC50 [1]: > 100 µM
CC(=O)N1CCOc2ccc(S(=O)(=O)N(C)c3ccc(C)cc3)cc21,> 100 µM (inactive),–,–
O=C(O)c1nn2c(C(F)(F)F)cc(-c3cccs3)nc2c1Cl,> 100 µM (inactive),–,–
CN(C)S(=O)(=O)c1ccc(Cl)c(C(=O)OCC(=O)NC(=O)c2cccn2C)c1,> 100 µM (inactive),–,–
C[C@@H]1CN([C@@H](C)CO)C(=O)c2cc(NC(=O)Nc3cccc4ccccc34)ccc2O[C@@H](C)CCCCO[C@H]1CN(C)C(=O)CCCN(C)C,> 100 µM (inactive),–,–
Cc1cccc(CSCC(=O)N2CCN(S(=O)(=O)c3ccccc3C#N)CC2)c1,> 100 µM (inactive),–,–
CCCNc1ccc(C(=O)OCC)cc1[N+](=O)[O-],> 100 µM (inactive),> 100,–
CC(C)(C)C1CCC(OC(=O)C[N+]2(C)CCCCC2)CC1 (stereo not given),> 100 µM (inactive),> 100,–
CN1C(=O)c2cccc3c(S(=O)(=O)NCCc4ccccc4)ccc1c23,> 100 µM (inactive),> 100,–
COc1cc2c(c(OC)c1OC)C(c1ccc3c(c1)OCO3)CC(=O)O2 (stereo not given),> 100 µM (inactive),> 100,–
COc1cc2cc(C(=O)Nc3ccc4c(c3)OCCO4)[nH]c2cc1OC,> 100 µM (inactive),–,–
Brc1ccccc1Cn1c(-c2cncs2)nc2ccccc21,> 100 µM (inactive),> 100,AC50 [1]: > 100 µM
CC(C(=O)Nc1nc2ccccc2s1)n1cc([N+](=O)[O-])cn1 (stereo not given),> 100 µM (inactive),> 100,AC50 [1]: > 100 µM
C[C@H](CO)N1C[C@H](C)[C@H](CN(C)C(=O)Nc2ccc3c(c2)OCO3)Oc2c(NC(=O)Nc3ccccc3)cccc2C1=O,> 100 µM (inactive),–,–
O=C(Nc1ccc(C(=O)Nc2ccccc2Cl)cc1)c1cccnc1,> 100 µM (inactive),–,AC50 [1]: 8.17 µM
CCN(CC(=O)Nc1cccc(C#N)c1)CC(=O)Nc1cccc(OC)c1,–,> 100,–
COc1ccc(C(=O)Nc2ccc3nc(C)sc3c2)cc1OC,> 100 µM (inactive),–,–
CCn1c(-c2ccccc2Cl)nn(CC(=O)Nc2ccccc2OC)c1=S,> 100 µM (inactive),–,–
CC(C)(C)c1ccc(S(=O)(=O)NCc2ccc(C(=O)NCc3ccccn3)cc2)cc1,> 100 µM (inactive),> 100,–

SMILES,AC50,AC50 [2] [µM],other results
COc1ccc(CN2C(=O)CC(Cc3cc(C)cc(C)c3)C2=O)cc1OC (stereo not given),–,> 100,–
Nc1ccccc1Sc1c[nH]c2ccccc12,> 100 µM (inactive),> 100,–
CN(C)S(=O)(=O)c1cccc(C(=O)Nc2ccc(C(=O)Nc3cccc(S(N)(=O)=O)c3)cc2)c1,> 100 µM (inactive),–,–
N#Cc1c(N)nc(SCc2ccccc2)c(C#N)c1-c1ccco1,> 100 µM (inactive),–,–
C=C(C)Cn1c(=O)c2c(nc3n2CC(C)CN3Cc2ccccc2)n(C)c1=O (stereo not given),> 100 µM (inactive),–,–
CCc1ccc(OCC(=O)NCc2ccco2)c(Br)c1,> 100 µM (inactive),–,–
COc1ccc(CC(=O)NC(C)c2ccc3ccccc3c2)cc1 (stereo not given),–,–,AC50 [1]: 5.4 µM
COC(=O)C[C@H]1C[C@@H]2c3cc(NC(=O)Nc4ccc(C(F)(F)F)cc4)ccc3O[C@@H]2[C@H](CO)O1,> 100 µM (inactive),–,–
COc1cccc(NC(=O)COC(=O)Cc2ccc(Br)cc2)c1,> 100 µM (inactive),> 100,–
Cc1cccc(-c2ccc([C@@H]3[C@@H](CO)N4CCCCN(S(=O)(=O)c5ccccc5C)C[C@@H]34)cc2)c1,–,> 100,–
O=c1[nH]c(C2CCN(S(=O)(=O)c3ccc4c(c3)OCCO4)CC2)nc2c1nnn2Cc1ccccc1F,> 100 µM (inactive),> 100,–
Cc1ccc(CC2C(=O)N(c3cc(Cl)ccn3)C(=O)C2C)cc1 (stereo not given),> 100 µM (inactive),–,–
Cc1nc(C)c(-c2ccn(S(=O)(=O)c3ccc(Cl)cc3)n2)o1,> 100 µM (inactive),–,–
CC1Cc2cc(S(=O)(=O)N3CCN(c4cccc(Cl)c4)CC3)ccc2N1C(=O)C1CC1 (stereo not given),–,> 100,–
CCOc1ccc2nc(SCC(=O)Nc3nonc3C)[nH]c2c1,> 100 µM (inactive),–,–
CC(C)C[C@@H](CSc1ccccc1)N1CCN(CC(C)C)CCC1=O,> 100 µM (inactive),> 100,–
O=C1CSC(c2cccnc2)N1Cc1ccc(Cl)c(Cl)c1 (stereo not given),–,> 100,–
Cc1ccn2cc(-c3cccc(NC(=O)c4cccs4)c3)nc2c1,> 100 µM (inactive),> 100,–
Cc1cc(C)nc(SCc2cn3c(C)cccc3n2)n1,> 100 µM (inactive),> 100,–
CC1CCCCN1CC(O)COCCC12CC3CC(CC(C3)C1)C2 (stereo not given),> 100 µM (inactive),> 100,–
O=c1[nH]c2cc([N+](=O)[O-])ccc2c2ccccc12,> 100 µM (inactive),> 100,AC50 [1]: > 100 µM
O=[N+]([O-])c1ccc(N2CCOCC2)c2c1no[n+]2[O-],–,–,AC50 [1]: 0.638 µM

SMILES,AC50,AC50 [2] [µM],other results
O=C(CCc1ccccc1)Nc1sc2c(c1C(=O)O)CCCC2,> 100 µM (inactive),–,–
Cc1cccc(N2CCN(Cc3nc(-c4ccc(F)cc4F)oc3C)CC2)n1,> 100 µM (inactive),> 100,–
CN(C)CCCN(C(=O)CCOc1ccccc1)c1nc2c(F)cccc2s1,> 100 µM (inactive),–,–
CC[N+](CC)(CC#Cc1ccccc1)CC#Cc1ccccc1,> 100 µM (inactive),> 100,–
CC(=O)NCCOc1nc(N2CCCCC2)nc(N2CCCCC2)n1,> 100 µM (inactive),–,–
Cc1cc(C(C)(C)C)oc1C(=O)N(CC(=O)NC1CCCC1)c1c(C)cccc1C,> 100 µM (inactive),–,–
NC(=O)c1cc(NC(=O)c2cc(Br)c(Br)s2)cc(C(N)=O)c1,> 100 µM (inactive),–,–
COc1cccc(C(=O)C2CCCN(C/C=C/c3ccccc3OC)C2)c1 (stereo not given),> 100 µM (inactive),–,AC50 [1]: > 100 µM
CCn1cc(Br)c(C(=O)Nc2ccc(C(=O)OC(C)C)cc2)n1,> 100 µM (inactive),–,–
CCc1nn2cc(C(=O)c3cc(Cl)ccc3O)cnc2c1-c1ccc(F)cc1,> 100 µM (inactive),–,–
CC(C)(C)S(=O)(=O)Cc1nc(-c2ccc(Cl)c(Cl)c2)cs1,–,–,AC50 [1]: 38.5 µM
COc1ccc2cc(CO)c3cc(OC)c(OC)cc3c2c1,–,> 100,AC50 [1]: > 100 µM
CCOC(=O)C1NN=C(C(=O)c2ccccc2)C1c1ccc(OC)cc1 (stereo not given),–,> 100,–
COc1cccc(S(=O)(=O)N2CCCCN3[C@H](CO)[C@H](c4ccc(C#CC(C)C)cc4)[C@@H]3C2)c1,> 100 µM (inactive),> 100,–
Cc1cc(C)c(S(=O)(=O)NCCOc2ccccc2)c(C)c1-n1cnnn1,> 100 µM (inactive),–,–
Cc1cc(NC(=O)CCCn2cc([N+](=O)[O-])cn2)n(Cc2ccc(F)cc2)n1,> 100 µM (inactive),> 100,–
COc1ccc(-c2nc(NC(C)=O)sc2-c2ccccc2)cc1,> 100 µM (inactive),–,–
Cc1ccc(C)c(-c2[nH]ncc2CN2CCCC(CO)(Cc3ccccc3C)C2)c1 (stereo not given),> 100 µM (inactive),> 100,–
COc1ccc(NC(=O)c2sccc2-n2cccc2)cc1,> 100 µM (inactive),> 100,–
